Tests used:
[1] = system: LC3; assay: immunoblotting of LC3 in S. typhimurium-infected J774A.1 cells treated with a lysosomal V-ATPase inhibitor; format: cell-based; conditions: 100 nM, 4 hours
Description: (§1) First, J774A.1 macrophages (Korean Cell Line Bank) were cultured in RPMI (Rosewell Park Memorial Institue) supplemented with 10% FBS and 100 units/mL penicillin/streptomycin, and HeLa cells were cultured in Dulbecco's Modified Eagle's Medium (DMEM; Gibco, 10566016) supplemented with 10% FBS and 100 units/mL penicillin/streptomycin. All cell lines were tested negative for mycoplasma using the MycoAlert detection kit (Lonza, LT07-118), and all culture plates and cell lines were maintained in a humidified incubator at 37° C. and 5% CO2.
Macrophage J774A.1 and HeLa cells were infected with Salmonella typhimurium, a Gram-negative bacterium, and the expression of LC3 was monitored through immunoblotting. Mouse monoclonal anti-[…] (Abcam, ab56416, 1: 100,000) was used for immunoblotting, rabbit polyclonal anti-LC3 (Sigma, L7543, 1:40,000) was used for immunoblotting, and anti-rabbit IgG-HRP (Cell Signaling, 7074, 1:10,000) and anti-mouse IgG-HRP (Cell Signaling, 7076, 1:1000) were used as secondary antibodies.
The J774A.1 cells of Experimental Example 1-1 were treated with bafilomycin A1 (100 nM), an inhibitor of lysosomal V-ATPase, for 4 hours, and immunoblotting was performed in the same manner as in Experimental Example 1-1. However, there was no difference in the degree of inhibition of LC3-I and LC-II expression even when treated with lysosomal V-ATPase inhibitor (FIG. 1E).

[2] = system: LC3; assay: immunoblotting of LC3 in J774A.1 and HeLa cells treated with LPS; format: cell-based; conditions: 100 ng/mL, 6 hours
Description: as §1
[…] Mouse monoclonal anti-β62 (Abcam, ab56416, 1: 100,000) was used for immunoblotting, rabbit polyclonal anti-LC3 (Sigma, L7543, 1:40,000) was used for immunoblotting, and anti-rabbit IgG-HRP (Cell Signaling, 7074, 1:10,000) and anti-mouse IgG-HRP (Cell Signaling, 7076, 1:1000) were used as secondary antibodies.
In addition, in order to rule out the possibility that J774A.1 and HeLa cells lack the ability to induce autophagy in response to pathogen invasion, the J774A.1 and HeLa cells of Experimental Example 1-1 were treated with lipopolysaccharide (LPS) (100 ng/mL), a component of the outer membrane of Gram-negative bacteria, as a pathogen-associated molecular pattern (PAMP) for 6 hours, and immunoblotting was performed in the same manner as in Experimental Example 1-1.

Compound | degree of inhibition of LC3-I and LC-II expression [1] | lipidation of LC3 (LC3-II) [2] | synthesis of LC3 (LC3-I) [2]
CO/C1=C\C(C)=C\[C@@H](C)[C@@H](O)[C@@H](C)C/C(C)=C/C=C/[C@H](OC)[C@@H]([C@@H](C)[C@@H](O)[C@H](C)[C@@]2(O)C[C@@H](O)[C@H](C)[C@@H](C(C)C)O2)OC1=O [bafilomycin A1] | no difference |  | 
lipopolysaccharide [LPS] |  | strongly induced | strongly induced

Reference: US20250120944A1, “ANTIBACTERIAL COMPOSITION” (SEOUL NATIONAL UNIVERSITY R&DB FOUNDATION, priority 2021, published 2025)
